# Measurements taken from patent publication US20020148006A1, “Transgenic plants with modified sterol compositions” (Asgrow Seed Company, L.L.C., priority 1996, published 2002).
# Like-named read-outs stand apart in the source and are kept apart here.
# What was measured:
# [1] = test system: (S)-adenosyl-L-methionine: Δ^24-sterol methyl transferase (SMT); experiment: Effect of substrate and transition state analog inhibitors on soluble SMT enzyme from 4-day seedlings; assay type: biochemical, Zea mays (corn); conditions: for Effect on the first methyl transfer / Effect on the second methyl transfer / Type of inhibition / kinetic pattern: soluble corn SMT; for Ki: soluble SMT, 4-day seedlings, NA = no inhibition
# [2] = test system: 3-hydroxy-3-methylglutaryl-coenzyme A reductase (HMGR); experiment: Microsomal HMGR activity during seedling development; assay type: biochemical, corn; design: dose or concentration left out as unconfirmed
# [3] = test system: yeast sterol auxotroph, GL-7; experiment: Growth support of yeast sterol auxotroph GL-7 cultured with test sterols; assay type: cell-based; conditions: sterol added to culture medium
# Procedure: The phytosterols identified in Example 1 were tested individually for their ability to support growth. In the absence of a plant sterol mutant for such studies the yeast sterol auxotroph, GL-7, was cultured in the presence of sterols identified according to Example 1, above (Li, 1996). This yeast mutant is used as a model system because it can take up sterols from the culture medium and incorporate the test sterol into the membrane lipid bilayer and proliferate. The amount of proliferation of the cells was measured in the presence and absence of hormonal levels of ergosterol, the major yeast sterol.
# Heliothis zea = experiment: Sterol utilization and metabolism by Heliothis zea reared on artificial diet with sterol supplement; conditions: for Sterol composition (as % total sterol): ts: insect tissues, RP-HPLC and GC-MS; for Utilization by H. zea / support of larval growth and development (words): test sterol as sole added dietary sterol
# Procedure: Heliothis zea (corn earworm) was reared on an artificial diet treated with different sterol supplements to study the relation between sterol structure and utilization in insects. H. zea eggs were used to establish a disease-free stock colony.
# The stock insects were reared using sterile procedures on a pinto bean-based diet. Moths were fed 10% sucrose. Cultures were maintained at 27±1° C., at 40±10% relative humidity on a 14:10 light-dark photoperiod and an artificial diet was used to rear the insects on different sterol supplements. The experimental diet contained agar, which is known to contain trace contamination of cholesterol, otherwise the experimental diet was sterol-free.
# Sterols were solubilized in acetone. Aliquots of the solutions were added to the sterol-free diet in a mortar, the material mixed thoroughly with the diet, and the organic solvent allowed to evaporate. Sterols were supplied to the medium at 200 ppm (equivalent to 1 mg of sterol per experimental vessel containing one insect).
# By day 20, H. zea larva are in the final stage of larval development (sixth instar), after which the insects may pupate. A single neonate larva was placed in an experimental culture vial and allowed to grow for 20 days. The fresh weight, length and instar stage of 20-day larva were recorded.
# In some treatments, the larvae were allowed to grow for another 4 days to determine whether they could pupate properly and develop into moth forms.
# These fatty alcohols may comigrate with sterols during some forms of chromatography and interfere with sterol quantitation, particularly of cholesterol. Therefore, in order to confirm the identity and amount of cholesterol in the insect an aliquot of the NSF was injected into a HPLC column and the fraction corresponding to cholesterol was examined by GC-MS.
# yeast SMT enzyme = target: T1, yeast SMT enzyme (Saccharomyces cerevisiae, UniProt P25087); experiment: Substrate preference / binding of yeast SMT (ERG6 product); assay type: biochemical
# T1 construct: made in house; host or cells: E. coli, pET23a(+)
# T1 sequence (P25087 1-383): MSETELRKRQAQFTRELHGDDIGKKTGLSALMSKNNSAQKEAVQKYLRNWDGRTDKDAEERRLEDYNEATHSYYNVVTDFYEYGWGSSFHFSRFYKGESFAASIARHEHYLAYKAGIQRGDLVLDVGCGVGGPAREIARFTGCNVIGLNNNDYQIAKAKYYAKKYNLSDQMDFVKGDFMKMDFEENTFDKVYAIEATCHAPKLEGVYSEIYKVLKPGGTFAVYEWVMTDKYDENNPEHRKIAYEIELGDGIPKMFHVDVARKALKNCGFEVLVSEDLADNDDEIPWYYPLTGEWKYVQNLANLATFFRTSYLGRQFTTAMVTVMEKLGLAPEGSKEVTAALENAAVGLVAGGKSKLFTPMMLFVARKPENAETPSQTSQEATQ
# Source text: The cloned ERG6 gene was expressed in E. coli (Venkatramesh et al., 1996).
# [4] = test system: (S)-adenosyl-L-methionine: Δ^24-sterol methyl transferase (SMT); experiment: Sterol specificity (substrate methylation) of SMT enzyme from 4-day corn seedlings; assay type: biochemical, Zea mays (corn); conditions: for % Activity, relative to cycloartenol methylation: soluble SMT
# Procedure: The sterol specificity of the microsome-bound and soluble SMT enzyme from 4-day corn seedlings was determined in order to elucidate the enzymatic basis for the plant sterols identified in Example 1.
# [5] = read-out: Ki relative to the second methyl transfer
# [6] = Table 11, sterol 200 ppm in diet
# [7] = Table 11, sterol 200 ppm in diet, 20-day larvae, relative to growth on cholesterol normalized to 100%
# [8] = read-out: Ki relative to the first methyl transfer
molecule,measurement,setting,value
"CC(C)C(C)CCC(C)C1CCC2C3CC=C4CC(O)CCC4(C)C3CCC12C (stereo not shown) [Campesterol, campesterol]",Effect on the first methyl transfer,[1],failed to inhibit either the first or second methylation reaction
same,Effect on the second methyl transfer,[1],failed to inhibit either the first or second methylation reaction
CC=C(CCC(C)C1CCC2C3=CCC4C(C)C(O)CCC4(C)C3CCC21C)C(C)C (stereo not shown) [Z-24(28)-Ethylidene lophenol],Ki,[1]; [5],75 µM
same,Effect on the first methyl transfer,[1],not affecting the first methyl transfer
"CCC(CCC(C)C1CCC2C3CC=C4CC(O)CCC4(C)C3CCC12C)C(C)C (stereo not shown) [Sitosterol, sitosterol]","Ki, second methyl transfer",[1],100 µM
same,Ki,[1]; [5],100 µM
same,Effect on the first methyl transfer,[1],without affecting the first methyl transfer
same,Effect on HMGR activity,[2],neither sitosterol nor 24(28)-methylene cycloartanol at 100 mM affected HMGR activity
same,Effect on growth of GL-7,[3],without affecting the rate of growth of the cells
same,Sterol composition (as % total sterol): ts,Heliothis zea; Table 11,20%
same,Instar reached by day 20,Heliothis zea; [6],6
same,Growth response,Heliothis zea; [7],100%
same,Utilization by H. zea / support of larval growth and development (words),Heliothis zea,supported larval growth to late-sixth instar
"26,27-Cyclopropylidene cycloartenol",Ki,[1]; [8],25 µM
same,Effect on the second methyl transfer,[1],not affecting the second methyl transfer
same,Type of inhibition / kinetic pattern,[1],potent competitive inhibitor
same,Substrate preference / binding to yeast SMT (words),yeast SMT enzyme,failed to bind to the yeast SMT enzyme
CC(C)[C@@H](C)/C=C/[C@@H](C)[C@H]1CC[C@H]2C3=CC=C4C[C@@H](O)CC[C@]4(C)[C@H]3CC[C@]12C [Ergosterol],Effect on growth of GL-7,[3],sparking growth
same,Sterol composition (as % total sterol): ts,Heliothis zea; Table 11,36%
same,Instar reached by day 20,Heliothis zea; [6],3
same,Growth response,Heliothis zea; [7],30%
CC(C)CCC[C@@H](C)[C@H]1CC[C@H]2[C@@H]3CC=C4C[C@@H](O)CC[C@]4(C)[C@H]3CC[C@]12C [Cholesterol],Effect on growth of GL-7,[3],without affecting the rate of growth of the cells
same,Dietary concentration that enhanced the rate of development of larvae,Heliothis zea; % of diet,≥ 0.015%
same,Minimal dietary concentration necessary for larvae to grow and pupate,Heliothis zea; % of the experimental diet,0.01%
same,Instar reached by day 20,Heliothis zea; [6],6
same,Growth response,Heliothis zea; [7],100%
same,Growth response,"Heliothis zea; Table 12, cholesterol / 24,25-dihydrolanosterol mixtures in diet",100
same,Instar reached by day 20,"Heliothis zea; Table 12, sterol mixtures",6
same,Sterol composition (as % total sterol): cholesterol,"Heliothis zea; Table 12, sterol recovered from insect",(100%)
same,Utilization by H. zea / support of larval growth and development (words),Heliothis zea,supported larval growth to late-sixth instar
C=C(CCC(C)C1CCC2(C)C3CCC4C(C)(C)C(O)CCC45CC35CCC12C)C(C)C (stereo not shown) [24(28)-Methylene cycloartanol],"% Activity, relative to cycloartenol methylation","[4]; (C2), second methyl transfer",0 (C2) %
same,Ki,[1]; [8],20 µM
same,Effect on the second methyl transfer,[1],failed to inhibit the second methyl transfer
same,Effect on HMGR activity,[2],neither sitosterol nor 24(28)-methylene cycloartanol at 100 mM affected HMGR activity
CC(C)=CCC[C@@H](C)[C@H]1CC[C@H]2C3=C(CC[C@]12C)[C@@]1(C)CC[C@H](O)C[C@@H]1CC3 [Zymosterol],Enzyme Activity,"[4]; soluble SMT from corn seedlings, substrates marked (C1), first methyl transfer, BG = background","5,252 dpm/min"
same,"% Activity, relative to cycloartenol methylation","[4]; (C1), first methyl transfer",14 (C1) %
same,Substrate quality for corn SMT,[4]; soluble enzyme,poor sterol substrate of the first methylation reaction
same,Substrate preference / binding to yeast SMT (words),yeast SMT enzyme,preferred sterol substrate of yeast SMT enzyme
same,Substrate preference / binding to yeast SMT (words),yeast SMT enzyme; listed as zymosterol,preferred substrate of the yeast SMT
"CC(CCC1NC1(C)C)[C@H]1CC[C@@]2(C)C3=C(CC[C@]12C)[C@]1(C)CC[C@H](O)C(C)(C)[C@@H]1CC3 (stereo partly drawn) [24-(R,S)-25-Epiminolanosterol, 24-(R,S)-25-epiminolanosterol]",Type of inhibition / kinetic pattern,[1],non-competitive type kinetic pattern
